According to patent EP4759807A1, “PROTEOLYSIS TARGETING CHIMERA COMPOUND FOR DEGRADING IRAK4 AND USE THEREOF” (Shenzhen Zhongge Biological Technology Co., Ltd., priority 2023, dated 2025):
Read-outs that look alike come from different tables or passages of the source.

Target: T1, IRAK4 (Homo sapiens, UniProt Q9NWZ3)
T1 sequence (Q9NWZ3 1-460): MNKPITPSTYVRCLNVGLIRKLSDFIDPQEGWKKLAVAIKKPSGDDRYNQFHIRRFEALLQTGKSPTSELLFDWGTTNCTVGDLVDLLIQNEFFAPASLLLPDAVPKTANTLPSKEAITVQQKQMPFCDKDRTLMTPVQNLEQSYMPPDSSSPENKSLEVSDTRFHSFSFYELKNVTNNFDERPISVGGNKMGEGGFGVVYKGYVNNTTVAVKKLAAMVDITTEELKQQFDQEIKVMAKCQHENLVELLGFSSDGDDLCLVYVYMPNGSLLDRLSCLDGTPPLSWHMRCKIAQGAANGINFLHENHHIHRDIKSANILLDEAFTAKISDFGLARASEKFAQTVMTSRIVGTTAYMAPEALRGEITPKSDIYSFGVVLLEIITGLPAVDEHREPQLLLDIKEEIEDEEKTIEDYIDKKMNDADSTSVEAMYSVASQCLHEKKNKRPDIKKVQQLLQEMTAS
Experiment: Hibit fluorescence detection of proteolysis (IRAK4-HiBiT in HEK293T cells)
Type: cell-based
Design: host or cells: HEK293T (ATCC)
Details: for Dmax: HEK-293T; for DC50: IRAK4-HiBiT, HEK293T cells, 24 h
Experimental: Utilizing HiBiT tag technology, the HiBiT tag-containing sequence (Seq. ID. No. 1, Beijing Tsingke Biotech Co., Ltd.) was connected to the IRAK4 plasmid (Seq. ID. No. 2, Beijing Tsingke Biotech Co., Ltd.), and the plasmid was transfected into HEK293T cells (ATCC). […] The 6-well plate that was incubated overnight was taken out. After the plate was left at room temperature for 15 min, the obtained mixture was added dropwise to the 6-well plate. […] Culture was performed at 37°C and 5% CO2 for 24 h. The 384-well plate was taken out and equilibrated to room temperature. 40 µL of Nano-Glo® HiBiT Lytic Detection System (Promega N3030) was added to each well and incubated at room temperature for 15 min. […] Prism 9.3 software was used to perform fitting analysis for data, and non-linear fitting (non-liner inhibitor (Bell-shaped)) and four parameters (4 parameter) were used, and the parameters was as follows: Span1 = Plateau1−Dip [formula] Span2 = Plateau2−Dip [formula] Section1 = Span1/(1+10^(∧)((LogEC50_1−X)*nH1)) [formula] Section2 = Span2/(1+10^(∧)((X−LogEC50_2)*nH2)) [formula]
The equation was as follows: Y=Dip+Section1+Section2. • Seq. ID. No. 1 ([…]), other DNA, synthetic construct, sequence length 33; • Seq. ID. No. 2 [formula]

| Structure (SMILES) | Dmax | DC50 | DC50 (read-out: DC50) |
| --- | --- | --- | --- |
| Cn1c(=O)n(C2CCC(=O)NC2=O)c2cccc(N3CCN(C4CCN(C[C@H]5CC[C@H](n6cc(-n7cc(-c8cnn9ccc(N%10CCOCC%10)nc89)nn7)c(C(F)F)n6)CC5)CC4)CC3)c21 (stereo partly drawn) [Example 40] | > 80% | < 0.5 nM | – |
| Cn1c(=O)n(C2CCC(=O)NC2=O)c2cccc(N3CCC4(CCN(C[C@H]5CC[C@H](n6cc(-n7cc(-c8cnn9ccc(N%10CCOCC%10)nc89)nn7)c(C(F)F)n6)CC5)CC4)C3)c21 (stereo partly drawn) [Example 45] | 70 to 80% | < 0.5 nM | – |
| Cn1c(=O)n(C2CCC(=O)NC2=O)c2cccc(NC3CCN(C[C@H]4CC[C@H](n5cc(-n6cc(-c7ccc8cc(C(N)=O)cnn78)nn6)c(C(F)F)n5)CC4)CC3)c21 (stereo partly drawn) [Example 66, 7-(1-(3-(difluoromethyl)-1-((1r,4r)-4-((4-((1-(2,6-dioxopiperidin-3-yl)-3-methyl-2-oxo-2,3-dihydro-1H-benzo[d]imidazol-4-yl)amino)piperidin-1-yl)methyl)cyclohexyl)-1H-pyrazol-4-yl)-1H-1,2,3-triazol-4-yl)pyrrolo[1,2-b]pyridazine-3-carboxamide] | 70 to 80% | < 0.5 nM | – |
| C[C@H](C#Cc1cccc2c1n(C)c(=O)n2C1CCC(=O)NC1=O)OC1CCN(C[C@H]2CC[C@H](n3cc(-n4cc(-c5cnn6ccc(N7CCOCC7)nc56)nn4)c(C(F)F)n3)CC2)CC1 (stereo partly drawn) [Example 1, 3-(4-((R)-3-((1-(((1r,4R)-4-(3-(difluoromethyl)-4-(4-(5-morpholinopyrazolo[1,5-a]pyrimidin-3-yl)-1H-1,2,3-triazol-1-yl)-1H-pyrazol-1-yl)cyclohexyl)methyl)piperidin-4-yl)oxy)but-1-yn-1-yl)-3-methyl-2-oxo-2,3-dihydro-1H-benzo[d]imidazol-1-yl)piperidine-2,6-dione] | < 60% | < 0.5 nM | – |
| C[C@H]1CN(c2cccc3c2n(C)c(=O)n3C2CCC(=O)NC2=O)CCN1C[C@H]1CC[C@H](n2cc(-n3cc(-c4cnn5ccc(N6CCC(C)(O)CC6)nc45)nn3)c(C(F)F)n2)CC1 (stereo partly drawn) [Example 284] | 70 to 80% | < 0.5 nM | – |
| Cn1c(=O)n(C2CCC(=O)NC2=O)c2cccc(N3CCC4(CCN(C[C@H]5CC[C@H](n6cc(-n7cc(-c8cnn9ccc(N%10CC%11(COC%11)C%10)nc89)nn7)c(C(F)F)n6)CC5)CC4)CC3)c21 (stereo partly drawn) [Compound 223] | > 80% | – | < 0.5 nM |
| Cn1c(=O)n(C2CCC(=O)NC2=O)c2cccc(N3CCC(N4CCN(C[C@H]5CC[C@H](n6cc(-n7cc(-c8cnn9ccc(N%10CC%11(COC%11)C%10)nc89)nn7)c(C(F)F)n6)CC5)CC4)CC3)c21 (stereo partly drawn) [Compound 224] | > 80% | – | < 0.5 nM |
| Cn1c(=O)n(C2CCC(=O)NC2=O)c2cccc(N3CC(N4CCN(C[C@H]5CC[C@H](n6cc(-n7cc(-c8cnn9ccc(N%10CCOCC%10)nc89)nn7)c(C(F)F)n6)CC5)CC4)C3)c21 (stereo partly drawn) [Example 42, 3-(4-(3-(4-(((1r,4r)-4-(3-(difluoromethyl)-4-(4-(5-morpholinopyrazolo[1,5-a]pyrimidin-3-yl)-1H-1,2,3-triazol-1-yl)-1H-pyrazol-1-yl)cyclohexyl)methyl)piperazin-1-yl)azetidin-1-yl)-3-methyl-2-oxo-2,3-dihydro-1H-benzo[d]imidazol-1-yl)piperidine-2,6-dione] | < 60% | < 0.5 nM | – |
| C[C@H]1CN(c2ccn3ncc(-c4cn(-c5cn([C@H]6CC[C@H](CN7CC8(CCN(c9cccc%10c9n(C)c(=O)n%10C9CCC(=O)NC9=O)CC8)C7)CC6)nc5C(F)F)nn4)c3n2)CCO1 (stereo partly drawn) [Compound 212] | > 80% | – | < 0.5 nM |
| Cn1c(=O)n(C2CCC(=O)NC2=O)c2cccc(N3CC(CN4CCC(n5cc(-n6cc(-c7ccc8cc(C(N)=O)cnn78)nn6)c(C(F)F)n5)CC4)C3)c21 (stereo not drawn) [Example 73, 7-(1-(3-(difluoromethyl)-1-(1-((1-(1-(2,6-dioxopiperidin-3-yl)-3-methyl-2-oxo-2,3-dihydro-1H-benzo[d]imidazol-4-yl)azetidin-3-yl)methyl)piperidin-4-yl)-1H-pyrazol-4-yl)-1H-1,2,3-triazol-4-yl) pyrrolo[1,2-b]pyridazine-3-carboxamide] | < 60% | < 0.5 nM | – |
| Cn1c(=O)n(C2CCC(=O)NC2=O)c2cccc(N3CCN(C4CN(C[C@H]5CC[C@H](n6cc(-n7cc(-c8ccc9cc(C(N)=O)cnn89)nn7)c(C(F)F)n6)CC5)C4)CC3)c21 (stereo partly drawn) [Example 67] | > 80% | < 0.5 nM | – |
| NC(=O)c1cnn2c(-c3cn(-c4cn([C@H]5CC[C@H](CN6CCN(c7ccc(C(=O)NC8CCC(=O)NC8=O)c(F)c7)CC6)CC5)nc4C(F)F)nn3)ccc2c1 (stereo partly drawn) [Example 31] | 70 to 80% | > 5 nM | – |
| Cn1c(=O)n(C2CCC(=O)NC2=O)c2cccc(CN3CCC4(CC3)CCN(C[C@H]3CC[C@H](n5cc(-n6cc(-c7cnn8ccc(N9CCOCC9)nc78)nn6)c(C(F)F)n5)CC3)CC4)c21 (stereo partly drawn) [Example 6] | < 60% | < 0.5 nM | – |
| Cn1c(=O)n(C2CCC(=O)NC2=O)c2cccc(N3CCC4(CCN(C[C@H]5CC[C@H](n6cc(-n7cc(-c8cnn9ccc(N%10CCOCC%10)nc89)nn7)c(C(F)F)n6)CC5)C4)C3)c21 (stereo partly drawn) [Example 32, 3-(4-((1r,4r)-4-(3-(difluoromethyl)-4-(4-(5-morpholinopyrazolo[[1,5-a]pyrimidin-3-yl)-1H-1,2,3-triazol-1-yl)-1H-pyrazol-1-yl)cyclohexylmethyl)-2,7-diazaspiro[4.4]non-2-yl)-3-methyl-2-oxo-2,3-dihydro-1H-benzo[d]imidazol-1-yl)piperidine-2,6-dione] | 70 to 80% | < 0.5 nM | – |
| Cn1c(=O)n(C2CCC(=O)NC2=O)c2cccc(N3CCC4(CCN(C[C@H]5CC[C@H](n6cc(-n7cc(-c8cnn9ccc(N%10CCC[C@H](O)C%10)nc89)nn7)c(C(F)F)n6)CC5)CC4)C3)c21 (stereo partly drawn) [Example 143] | > 80% | < 0.5 nM | – |
| NC(=O)c1cnn2c(-c3cn(-c4cn([C@H]5CC[C@H](CN6CCN(c7ccc8c(c7)C(=O)N(C7CCC(=O)NC7=O)C8=O)CC6)CC5)nc4C(F)F)nn3)ccc2c1 (stereo partly drawn) [Example 70, 7-(1-(3-(difluoromethyl)-1-((1r,4r)-4-(4-(2-(2,6-dioxopiperidin-3-yl)-1,3-dioxoisoindolin-5-yl)piperazin-1-yl)methyl)cyclohexyl-1H-pyrazol-4-yl)-1H-1,2,3-triazol-4-yl)pyrrolo[1,2-b]pyridazine-3-carboxamide] | 70 to 80% | 1 to 5 nM | – |
| Cn1c(=O)n(C2CCC(=O)NC2=O)c2cccc(CC3CCN(CC4CCN(C[C@H]5CC[C@H](n6cc(-n7cc(-c8cnn9ccc(N%10CCOCC%10)nc89)nn7)c(C(F)F)n6)CC5)CC4)CC3)c21 (stereo partly drawn) [Example 8] | < 60% | > 5 nM | – |
| Cn1c(=O)n(C2CCC(=O)NC2=O)c2cccc(C3CCN(C[C@H]4CC[C@H](n5cc(-n6cc(-n7ccc8cc(C(N)=O)cnc87)nn6)c(C(F)F)n5)CC4)CC3)c21 (stereo partly drawn) [Example 101, 1-(1-(3-(difluoromethyl)-1-((1r,4r)-4-((4-(1-(2,6-dioxopiperidin-3-yl)-3-methyl-2-oxo-2,3-dihydro-1H-benzo[d]imidazol-4-yl)piperidin-1-yl)methyl)cyclohexyl)-1H-pyrazol-4-yl)-1H-1,2,3-triazol-4-yl)-1H-pyrrolo[2,3-b]pyridine-5-carboxamide] | 70 to 80% | < 0.5 nM | – |
